Results taken from US20220378707A1, “1-(((2S,3S,4S)-3-ETHYL-4-FLUORO-5-OXOPYRROLIDIN-2-YL)METHOXY)-7-METHOXYISOQUINOLINE-6-CARBOXAMIDE COMBINATIONS AND ORAL DOSAGE FORMS” (Pfizer Inc., priority 2019, published 2022).

Key:
[1] = Particle size of PF-06650833 by milling process; format: physicochemical; conditions: PF-06650833 particles
[2] = Combination oral pharmacokinetic study of PF-06651600 and PF-06650833 in rat; conditions: male Wistar Han rat, PF-06651600 10 and 50 mg/kg, PF-06650833 30 and 100 mg/kg
Experimental: Doses of 1-((2S,5R)-5-((7H-pyrrolo[2,3-d]pyrimidin-4-yl)amino)-2-methylpiperidin-1-yl)prop-2-en-1-one were 10 and 50 mg/kg and 1-(((2S,3S,4S)-3-ethyl-4-fluoro-5-oxopyrrolidin-2-yl)methoxy)-7-methoxyisoquinoline-6-carboxamide were 30 and 100 mg/kg in male Wistar Han.

[3] = system: HDFn+(IL-1β, TNFα, IFNγ, EGF, bFGF and PDGF-BB); test: BioMAP HDF3CGF system; format: cell-based, human; conditions: wound healing, Th1-type inflammation; concentrations of FIGS. 12-16
Excerpt: (§1) The BioMAP systems consist of human primary cell-based systems designed to model different aspects of the human body in an in vitro format. The 12 systems tested characterized the test compounds across a broad set of systems modeling various human disease states. BioMAP systems were constructed with one or more primary cell types from healthy human donors, with stimuli (such as cytokines or growth factors) added to capture relevant signaling networks that naturally occur in human tissue or pathological conditions. Vascular biology was modeled in both a Th1 (3C system) and a Th2 (4H system) inflammatory environment, as well as in a Th1 inflammatory state specific to arterial smooth muscle cells (CASM3C system). Additional systems recapitulated aspects of the systemic immune response that included monocyte-driven Th1 inflammation (LPS system) or T cell stimulation (SAg system), chronic Th1 inflammation driven by macrophage activation (IMphg system) and the T cell-dependent activation of B cells that occurs in germinal centers (BT system). The BE3C system (Th1) and the BF4T system (Th2) represented airway inflammation of the lung, while the MyoF system modeled myofibroblast-lung tissue remodeling. Lastly, skin biology was addressed in the KF3CT system modeled Th1 cutaneous inflammation and the HDF3CGF system modeled wound healing.
(§2) All cells were from a pool of multiple donors (n=2-6), commercially purchased and handled according to the recommendations of the manufacturers. Human blood derived CD14+ monocytes were differentiated into macrophages in vitro before being added to the IMphg system. Abbreviations were used as follows: human umbilical vein endothelial cells (HUVEC), peripheral blood mononuclear cells (PBMC), human neonatal dermal fibroblasts (HDFn), B cell receptor (BCR), T cell receptor (TCR) and toll-like receptor (TLR). Cell types and stimuli used in each system were as follows:
(§3) 3C system [HUVEC+(IL-1β, TNFα and IFNγ)]; 4H system [HUVEC+(IL-4 and histamine)]; LPS system [PBMC and HUVEC+LPS (TLR4 ligand)]; SAg system [PBMC and HUVEC+T cell receptor (TCR) ligands]; BT system [CD19+B cells and PBMC+(α-IgM and TCR ligands)]; BF4T system [bronchial epithelial cells and HDFn+(TNFα and IL-4)]; BE3C system [bronchial epithelial cells+(IL-1p, TNFα and IFNγ)]; CASM3C system [coronary artery smooth muscle cells+(IL-1p, TNFα and IFNγ)]; HDF3CGF system [HDFn+(IL-1β, TNFα, IFNγ, EGF, bFGF and PDGF-BB)]; KF3CT system [keratinocytes and HDFn+(IL-1β, TNFα and IFNγ)]; MyoF system [differentiated lung myofibroblasts+(TNFα and TGFβ)]; and IMphg system [HUVEC and M1 macrophages+Zymosan (TLR2 ligand)].
Systems were derived from either single cell types or co-culture systems. Adherent cell types were cultured in 96 or 384-well plates until confluence, followed by the addition of PBMC (SAg and LPS systems). […] Test agents were prepared in DMSO (final concentration <0.1%) and were added 1 hour before stimulation, and remained in culture for 24 hours or as otherwise indicated (48-hrs, MyoF system; 72-hrs, BT system (soluble readouts); 168-hrs, BT system (secreted IgG)). […] Soluble factors from supernatants were quantified using either HTRF® detection, bead-based multiplex immunoassay or capture ELISA. Overt adverse effects of test agents on cell proliferation and viability (cytotoxicity) were detected by sulforhodamine B (SRB) staining, for adherent cells, and alamarBlue® reduction for cells in suspension.

[4] = system: CD19+B cells and PBMC+(α-IgM and TCR ligands); test: BioMAP BT system; format: cell-based, human; conditions: for Inhibition of biomarker readouts in the BT system: T cell dependent B cell activation, concentrations of FIGS. 12-14; for B cell proliferation in the BT system: concentrations of FIGS. 13-14
Excerpt: as §1, §2, §3
(§4) Systems were derived from either single cell types or co-culture systems. Adherent cell types were cultured in 96 or 384-well plates until confluence, followed by the addition of PBMC (SAg and LPS systems). The BT system consisted of CD19+B cells co-cultured with PBMC and stimulated with a BCR activator and low levels of TCR stimulation. Test agents were prepared in DMSO (final concentration <0.1%) and were added 1 hour before stimulation, and remained in culture for 24 hours or as otherwise indicated (48-hrs, MyoF system; 72-hrs, BT system (soluble readouts); 168-hrs, BT system (secreted IgG)). Each plate contained drug controls (e.g., legacy control test agent colchicine at 1.1 μM), negative controls (e.g., non-stimulated conditions) and vehicle controls (e.g., 0.1% DMSO) appropriate for each system. Direct ELISA was used to measure biomarker levels of cell-associated and cell membrane targets. Soluble factors from supernatants were quantified using either HTRF® detection, bead-based multiplex immunoassay or capture ELISA. Overt adverse effects of test agents on cell proliferation and viability (cytotoxicity) were detected by sulforhodamine B (SRB) staining, for adherent cells, and alamarBlue® reduction for cells in suspension. […]

[5] = system: human primary cell-based systems; test: BioMAP panel of 12 systems; conditions: BioMAP profile, PF-06651600 200-5400 nM
Excerpt: as §1, §2, §3, §4

[6] = system: PBMC and HUVEC+LPS (TLR4 ligand); test: BioMAP LPS system; format: cell-based, human; conditions: monocyte-driven Th1 inflammation, concentrations of FIGS. 12-14
Excerpt: as §1, §2, §3, §4

[7] = system: PBMC and HUVEC+T cell receptor (TCR) ligands; test: BioMAP SAg system; format: cell-based, human; conditions: for Inhibition of biomarker readouts in the SAg system: T cell-driven Th1 vascular inflammation, concentrations of FIGS. 12-16
Excerpt: as §1, §2, §3
Systems were derived from either single cell types or co-culture systems. Adherent cell types were cultured in 96 or 384-well plates until confluence, followed by the addition of PBMC (SAg and LPS systems). The BT system consisted of CD19+B cells co-cultured with PBMC and stimulated with a BCR activator and low levels of TCR stimulation. Test agents were prepared in DMSO (final concentration <0.1%) and were added 1 hour before stimulation, and remained in culture for 24 hours or as otherwise indicated (48-hrs, MyoF system; 72-hrs, BT system (soluble readouts); 168-hrs, BT system (secreted IgG)). Each plate contained drug controls (e.g., legacy control test agent colchicine at 1.1 μM), negative controls (e.g., non-stimulated conditions) and vehicle controls (e.g., 0.1% DMSO) appropriate for each system. Direct ELISA was used to measure biomarker levels of cell-associated and cell membrane targets. Soluble factors from supernatants were quantified using either HTRF® detection, bead-based multiplex immunoassay or capture ELISA. Overt adverse effects of test agents on cell proliferation and viability (cytotoxicity) were detected by sulforhodamine B (SRB) staining, for adherent cells, and alamarBlue® reduction for cells in suspension.

[8] = listed as 1-((2S,5R)-5-((7H-Pyrrolo[2,3-d]pyrimidin-4-yl)amino)-2-methylpiperidin-1-yl)pro
[9] = listed as 1-((2S,5R)-5-((7H-pyrrolo[2,3-d]pyrimidin-4-yl)amino)-2-methylpiperidin-1-yl)pro

| Particle size D[4, 3] [1] [μm] | Particle size D[v, 0.1] [1] [μm] | Particle size D[v, 0.5] [1] [μm] | Particle size D[v, 0.9] [1] [μm] | Structure (SMILES) | Effects of PF-06650833 on the pharmacokinetics of PF-06651600 [2] | Inhibition of biomarker readouts in the HDF3CGF system [3] | Inhibition of biomarker readouts in the BT system [4, 8] | Inhibition of biomarker readouts in the BT system [4, 9] | B cell proliferation in the BT system [4, 8] | B cell proliferation in the BT system [4, 9] | Immunomodulatory activities: Decreased Activity ([5]; PF-06650833 19-500 nM, tofacitinib 37-1000 nM) | Tissue Remodeling Activities: Decreased Activity [5] | Inhibition of biomarker readouts in the LPS system [6, 8] | Inhibition of biomarker readouts in the LPS system [6, 9] | Inhibition of biomarker readouts in the SAg system [7, 8] | Inhibition of biomarker readouts in the SAg system [7, 9] | Proliferation of T cells in the SAg system ([7]; concentrations of FIGS. 13-14) |
| --- | --- | --- | --- | --- | --- | --- | --- | --- | --- | --- | --- | --- | --- | --- | --- | --- | --- |
| 17.0 | 2.0 | 10.0 | 35.0 | CC[C@@H]1[C@H](F)C(=O)N[C@@H]1COc1nccc2cc(C(N)=O)c(OC)cc12 [Fitzmilled, 1-(((2S,3S,4S)-3-Ethyl-4-fluoro-5-oxopyrrolidin-2-yl)methoxy)-7-methoxyisoquinoline-6-carboxamide] | – | – | – | – | – | – | – | – | – | – | – | – | – |
| 4.6 | 0.7 | 3.9 | 9.6 | CC[C@@H]1[C@H](F)C(=O)N[C@@H]1COc1nccc2cc(C(N)=O)c(OC)cc12 [Jetmilled, 1-(((2S,3S,4S)-3-Ethyl-4-fluoro-5-oxopyrrolidin-2-yl)methoxy)-7-methoxyisoquinoline-6-carboxamide] | – | – | – | – | – | – | – | – | – | – | – | – | – |
| – | – | – | – | C=CC(=O)N1C[C@H](Nc2ncnc3[nH]ccc23)CC[C@@H]1C [PF-06651600, 1-((2S,5R)-5-((7H-Pyrrolo[2,3-d]pyrimidin-4-yl)amino)-2-methylpiperidin-1-yl)prop-2-en-1-one] | no significant effects | PA-I | sIgG, sIL-17A, sIL-17F, sIL-6, and TNFα | sIgG, sIL-17A, sIL-17F, sIL-6, and sTNFα | inhibited | B cell anti-proliferative activity | *sIgG, B cell proliferation, T cell proliferation | PAI-I | TNFα | sTNFα levels were reduced | IL-8 | sIL-s8 levels were reduced | inhibited |
| 28.4 | 4.6 | 22.3 | 61.6 | CC[C@@H]1[C@H](F)C(=O)N[C@@H]1COc1nccc2cc(C(N)=O)c(OC)cc12 [Unmilled, 1-(((2S,3S,4S)-3-Ethyl-4-fluoro-5-oxopyrrolidin-2-yl)methoxy)-7-methoxyisoquinoline-6-carboxamide] | – | – | – | – | – | – | – | – | – | – | – | – | – |
